Results as given in patent EP2462919A2, “Synergistic active agent combination for protecting the skin from IR radiation” (priority 2010, dated 2012).

Tests used:
Type in all cases: cell-based
[1] = tested on: Kollagenase MMP-1; test: Gene expression of ageing marker MMP-1 in cultured monolayer fibroblasts after substance treatment and infrared irradiation; conditions: for Expression der Kollagenase MMP-1 (result in words): Fibroblasten, Infrarot-Strahlen 760-1400 nm, after treatment
Text: (§1) 1. In vitro Assays hinsichtlich der Expression typischer Altersmarker in kultivierten Fibroblasten nach Substanzgabe und Infrarotbestrahlung
(§2) Methode: Monolayer-Fibroblasten wurden 24 Stunden vor und 24 Stunden nach Infrarot-Bestrahlung mit Lipochroman (Dimethylmethoxy Chromanol, 0,005 Gew.-%), Taurin (2-Aminoethansulfonsäure 0,005 Gew.-%) und Kombinationen beider Substanzen behandelt. Im Folgenden wurde die Genexpression der zwei Hautalterungsmarker Kollagenase MMP-1, das hinsichtlich der Hautalterung wichtigste Kollagen abbauende Enzym, und des spezifischen Inhibitors der Kollagenase MMP-1, TIMP-1 (tissue inhibitor of metalloproteinase 1), untersucht. Die Genexpressionswerte wurden im Folgenden auf die Werte der jeweiligen unbehandelten Kontrolle relativiert. Als Kontrollen wurden Fibroblasten analysiert, die ausschließlich mit Infrarot bestrahlt wurden.

[2] = tested on: TIMP-1 (tissue inhibitor of metalloproteinase 1); test: Gene expression of ageing marker TIMP-1 in cultured monolayer fibroblasts after substance treatment and infrared irradiation; conditions: for Expression von TIMP-1 (result in words): Fibroblasten, Bestrahlung mit Infrarot-Strahlen, after treatment
Text: as §1, §2

[3] = tested on: MMP1 / TIMP-1; test: MMP-1 / TIMP-1 expression ratio (collagen build-up/degradation balance) in fibroblasts after substance treatment and infrared irradiation; conditions: Monolayer-Fibroblasten, mit Infrarot A bestrahlt, irradiated-only control 1,2
Text: as §1
as §2, with “Methode: Monolayer-Fibroblasten wurden 24 Stunden vor und 24 Stunden nach Infrarot-Bestrahlung mit Lipochroman (Dimethylmethoxy Chromanol, 0,005 Gew.-%), Taurin (2-Aminoethansulfonsäure 0,005 Gew.-%) und Kombinationen beider Substanzen behandelt.” left out
Entscheidend für die Balance des Auf- und Abbaus von Kollagen in der Dermis ist das Verhältnis zwischen MMP-1 und TIMP-1. Ist dieses Verhältnis größer als der Vergleichswert, so kann von einem vermehrten Abbau durch die Kollagenase ausgegangen werden, ist das Verhältnis kleiner, so wird der Abbau vermehrt verhindert und neues Kollagen kann synthetisiert werden.

| Expression der Kollagenase MMP-1 (result in words) [1] | Expression von TIMP-1 (result in words) [2] | Compound | fold induction at 0.005 % ([1]; Fibroblast, light or radiation study, Monolayer-Fibroblasten, mit Infrarot A bestrahlt, 0,005 % Lipochroman-6, treated 24 h before and 24 h after irradiation, read-out: MMP-1 Regulierung mRNA (Gene Expression versus Sham control)) | fold induction at 0.005 % ([2]; Fibroblast, light or radiation study, Monolayer-Fibroblasten, mit Infrarot A bestrahlt, 0,005 % Lipochroman-6, treated 24 h before and 24 h after irradiation, read-out: TIMP-1 Regulierung mRNA (Gene Expression versus Sham control)) | MMP1 / TIMP-1 Ratio ([3]; 0,005 % Lipochroman-6) | fold induction at 0.05 % ([1]; Fibroblast, light or radiation study, Monolayer-Fibroblasten, mit Infrarot A bestrahlt, 0,05 % Taurin, treated 24 h before and 24 h after irradiation, read-out: MMP-1 Regulierung mRNA (Gene Expression versus Sham control)) | fold induction at 0.05 % ([2]; Fibroblast, light or radiation study, Monolayer-Fibroblasten, mit Infrarot A bestrahlt, 0,05 % Taurin, treated 24 h before and 24 h after irradiation, read-out: TIMP-1 Regulierung mRNA (Gene Expression versus Sham control)) | MMP1 / TIMP-1 Ratio ([3]; 0,05 % Taurin) |
| --- | --- | --- | --- | --- | --- | --- | --- | --- |
| erhöhten Expressionswerten | starken Expressionssteigerung | COc1cc2c(cc1O)CCC(C)(C)O2 [Lipochroman-6, 3,4-Dihydro-7-methoxy-2,2-dimethyl-2H-2 1-benzopyran-6-ol] | 1.75 | 1.65 | 2,7 | – | – | – |
| erhöhten Expressionswerten | leichten Steigerung der Expression | NCCS(=O)(=O)O [Taurin, 2-Aminoethansulfonsäure] | – | – | – | 2.05 | 1.1 | 1,6 |
